According to US10703733B2, “MCL-1 inhibitors” (Gilead Sciences, Inc., priority 2018, dated 2020):
pEC50, pIC50: −log10 of the molar value. Like-named read-outs stand apart in the source and are kept apart here.

Experiments:
[1] = target: MCL-1/Bim interaction (recombinant human MCL-1 protein, residues 171-327; biotinylated human Bim peptide, residues 51-76) (Homo sapiens (Human), UniProt Q07820); assay: MCL-1/Bim Binding AlphaLISA Assay; settings: 0.0625 nM 6xHis-Mcl-1 (171-327), 0.0625 nM biotinylated-Bim peptide
Sequence of MCL-1/Bim interaction (recombinant human MCL-1 protein, residues 171-327; biotinylated human Bim peptide, residues 51-76) (Q07820 171-327): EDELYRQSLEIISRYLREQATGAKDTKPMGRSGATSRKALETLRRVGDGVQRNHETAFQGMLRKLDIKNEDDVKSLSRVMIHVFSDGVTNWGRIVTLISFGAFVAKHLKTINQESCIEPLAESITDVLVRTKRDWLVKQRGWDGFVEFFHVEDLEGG
Method in brief: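 AlphaLISA with 0.0625 nM His-tagged MCL-1 (171-327) and 0.0625 nM biotinylated Bim (51-76) in 20 mM Hepes pH 7.5, 150 mM NaCl, 0.002% Brij 35, 1 mM DTT, 0.01% BSA. Compound preincubated 1 h with MCL-1, then Bim 2 h, acceptor beads 1 h, donor beads 1 h; percent inhibition against DMSO and no-protein/no-peptide controls.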

SKBR3 cells = assay: SKBR3 Cell Viability Assay (CellTiter Glo); assay type: cell-based; settings: CellTiter Glo luminescence, read-out: MCL-1 CV SKBR3 EC50
Method in brief: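 SKBR3 cells (6,000/well) in McCoy 5A + 10% FBS exposed to serially diluted compound for 72 h at 37° C., 5% CO2. Viability by CellTiter Glo luminescence; % inhibition normalized to DMSO (negative) and 10 μM puromycin (positive).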

Row | SMILES | pIC50 [1] | pEC50 (SKBR3 cells; Homo sapiens, SK-BR-3, 72 h) | pEC50 (SKBR3 cells; 72 hours)
1 | CO[C@H]1/C=C/CCC[S@@](=O)(NC(=O)C2CC2)=NC(=O)c2ccc3c(c2)N(C[C@@H]2CC[C@H]21)C[C@@]1(CCCc2cc(Cl)ccc21)CO3 [Example 27] | 8.80 | 5.68 | 
2 | CO[C@H]1/C=C/C[C@H](C)C[S@@](=O)(NC(=O)[C@H]2Cc3ccccc3CO2)=NC(=O)c2ccc3c(c2)N(C[C@@H]2CC[C@H]21)C[C@@]1(CCCc2cc(Cl)ccc21)CO3 (single isomer, unassigned) [Example 143] | 9.76 | 6.66 | 
3 | CCC(=O)NS1(=O)=NC(=O)c2ccc3c(c2)N(C[C@@H]2CC[C@H]2[C@@H](OC)/C=C/CC[C@H]1CC)C[C@@]1(CCCc2cc(Cl)ccc21)CO3 (single isomer, unassigned) [Example 65] | 8.74 |  | 5.71
4 | CO[C@H]1/C=C/CCC[S@@](=O)(NC(=O)C[C@H](O)c2ccccc2)=NC(=O)c2ccc3c(c2)N(C[C@@H]2CC[C@H]21)C[C@@]1(CCCc2cc(Cl)ccc21)CO3 [Example 72] | 10.00 | 6.58 | 
5 | CO[C@H]1/C=C/CCC[S@@](=O)(NC(=O)CCc2scnc2C)=NC(=O)c2ccc3c(c2)N(C[C@@H]2CC[C@H]21)C[C@@]1(CCCc2cc(Cl)ccc21)CO3 [Example 93] | 7.29 | 5.32 | 
6 | CO[C@H]1/C=C/CCC[S@@](=O)(NC(=O)CCC2CCCC2)=NC(=O)c2ccc3c(c2)N(C[C@@H]2CC[C@H]21)C[C@@]1(CCCc2cc(Cl)ccc21)CO3 [Example 82] | 8.96 | 5.64 | 
7 | CO[C@H]1/C=C/CCC[S@@](=O)(NC(=O)CC2CC2)=NC(=O)c2ccc3c(c2)N(C[C@@H]2CC[C@H]21)C[C@@]1(CCCc2cc(Cl)ccc21)CO3 [Example 21] | 9.10 | 5.89 | 
8 | CO[C@H]1/C=C/CCC[S@@](=O)(NC(=O)NC2(C(F)(F)F)CC2)=NC(=O)c2ccc3c(c2)N(C[C@@H]2CC[C@H]21)C[C@@]1(CCCc2cc(Cl)ccc21)CO3 [Example 32] | 8.85 | 5.83 | 
9 | COc1nn(C)cc1C(=O)N[S@@]1(=O)=NC(=O)c2ccc3c(c2)N(C[C@@H]2CC[C@H]2[C@@H](OC)/C=C/[C@H](Oc2cnccn2)[C@H](C)C1)C[C@@]1(CCCc2cc(Cl)ccc21)CO3 [Example 288] | 9.84 | 6.77 | 
10 | CO[C@H]1/C=C/CCC[S@@](=O)(NC(=O)CCc2ncsc2C)=NC(=O)c2ccc3c(c2)N(C[C@@H]2CC[C@H]21)C[C@@]1(CCCc2cc(Cl)ccc21)CO3 [Example 101] | 8.85 | 5.59 | 
11 | COc1nn(C)cc1C(=O)N[S@@]1(=O)=NC(=O)c2ccc3c(c2)N(C[C@@H]2CC[C@H]2[C@@H](OC)CC[C@H](O)[C@H](C)C1)C[C@@]1(CCCc2cc(Cl)ccc21)CO3 [Example 298] | 10.80 | 7.14 | 
12 | C[C@@H]1[C@@H](C)C/C=C/[C@H](O)[C@@H]2CC[C@H]2CN2C[C@@]3(CCCc4cc(Cl)ccc43)COc3ccc(cc32)C(=O)N=[S@]1(=O)NC(=O)c1cc2n(c1)C[C@H](CN1CCOCC1)OC2 [Example 327] | 10.29 | 7.54 | 
13 | CO[C@H]1/C=C/CCC[S@@](=O)(NC(=O)CCc2nnc(C)o2)=NC(=O)c2ccc3c(c2)N(C[C@@H]2CC[C@H]21)C[C@@]1(CCCc2cc(Cl)ccc21)CO3 [Example 60] | 9.70 | 5.96 | 
14 | CO[C@H]1/C=C/CCCS(=O)(NC(=O)CCn2ccnn2)=NC(=O)c2ccc3c(c2)N(C[C@@H]2CC[C@H]21)C[C@@]1(CCCc2cc(Cl)ccc21)CO3 (single isomer, unassigned) [Example 54] | 9.70 | 5.42 | 
15 | CO[C@H]1/C=C/C[C@H](C)C[S@@](=O)(NC(=O)N[C@H]2C[C@@H](COC(=O)N(C)C)C2)=NC(=O)c2ccc3c(c2)N(C[C@@H]2CC[C@H]21)C[C@@]1(CCCc2cc(Cl)ccc21)CO3 [Example 336] | 10.00 | 7.22 | 
16 | CCn1ccc(CCC(=O)N[S@@]2(=O)=NC(=O)c3ccc4c(c3)N(C[C@@H]3CC[C@H]3[C@@H](OC)/C=C/C[C@H](C)[C@H]2C)C[C@@]2(CCCc3cc(Cl)ccc32)CO4)n1 [Example 408] | 10.27 | 6.62 | 

Next, values leading:

Row | pIC50 [1] | pEC50 (SKBR3 cells; Homo sapiens, SK-BR-3, 72 h) | pEC50 (SKBR3 cells; 72 hours) | SMILES
17 | 10.09 | 7.27 |  | COCC12CC(NC(=O)N[S@@]3(=O)=NC(=O)c4ccc5c(c4)N(C[C@@H]4CC[C@H]4[C@@H](OC)/C=C/C[C@H](C)C3)C[C@@]3(CCCc4cc(Cl)ccc43)CO5)(C1)C2 [Example 211]
18 | 10.19 | 7.02 |  | CO[C@H]1/C=C/C[C@H](C)C[S@@](=O)(NC(=O)N[C@H]2C[C@@]2(C)OC)=NC(=O)c2ccc3c(c2)N(C[C@@H]2CC[C@H]21)C[C@@]1(CCCc2cc(Cl)ccc21)CO3 (single isomer, unassigned) [Example 313]
19 | 10.51 | 7.79 |  | CO[C@H]1/C=C/C[C@H](C)C[S@@](=O)(NC(=O)c2cc(CN3CCOCC3)n(C)c2)=NC(=O)c2ccc3c(c2)N(C[C@@H]2CC[C@H]21)C[C@@]1(CCCc2cc(Cl)ccc21)CO3 [Example 308]
20 | 9.77 | 6.86 |  | CO[C@H]1/C=C/C[C@H](C)C[S@@](=O)(NC(=O)c2ccc3c(c2)CCOC3)=NC(=O)c2ccc3c(c2)N(C[C@@H]2CC[C@H]21)C[C@@]1(CCCc2cc(Cl)ccc21)CO3 [Example 430]
21 | 9.58 | 7.01 |  | CO[C@H]1/C=C/C[C@H](C)C[S@@](=O)(NC(=O)c2cc3ccncn3c2)=NC(=O)c2ccc3c(c2)N(C[C@@H]2CC[C@H]21)C[C@@]1(CCCc2cc(Cl)ccc21)CO3 [Example 163]
22 | 9.87 | 7.32 |  | CO[C@H]1/C=C/C[C@H](C)C[S@@](=O)(NC(=O)c2cc3c([nH]2)CCOC3)=NC(=O)c2ccc3c(c2)N(C[C@@H]2CC[C@H]21)C[C@@]1(CCCc2cc(Cl)ccc21)CO3 [Example 158]
23 | 8.85 | 6.25 |  | CO[C@H]1/C=C/C[C@H](C)C[S@@](=O)(NC(=O)N2CCN(C(=O)OC(C)(C)C)[C@H](C)C2)=NC(=O)c2ccc3c(c2)N(C[C@@H]2CC[C@H]21)C[C@@]1(CCCc2cc(Cl)ccc21)CO3 [Example 382]
24 | 9.86 | 6.10 |  | COC(=O)N1CC[C@H](C(=O)N[S@@]2(=O)=NC(=O)c3ccc4c(c3)N(C[C@@H]3CC[C@H]3[C@@H](OC)/C=C/C[C@H](C)C2)C[C@@]2(CCCc3cc(Cl)ccc32)CO4)C1 [Example 439]
25 | 10.44 |  | 7.53 | CO[C@H]1/C=C/C[C@H](C)C[S@@](=O)(NC(=O)N[C@H]2C[C@@H]2OC)=NC(=O)c2ccc3c(c2)N(C[C@@H]2CC[C@H]21)C[C@@]1(CCCc2cc(Cl)ccc21)CO3 (single isomer, unassigned) [Example 195]
26 | 9.93 | 7.23 |  | CC[C@@H]1CC1NC(=O)N[S@@]1(=O)=NC(=O)c2ccc3c(c2)N(C[C@@H]2CC[C@H]2[C@@H](OC)/C=C/C[C@H](C)C1)C[C@@]1(CCCc2cc(Cl)ccc21)CO3 (stereo partly drawn) [Example 199]
27 | 9.98 | 6.48 |  | CO[C@H]1/C=C/C[C@H](C)C[S@@](=O)(NC(=O)[C@H]2CCOC2)=NC(=O)c2ccc3c(c2)N(C[C@@H]2CC[C@H]21)C[C@@]1(CCCc2cc(Cl)ccc21)CO3 [Example 427]
28 | 10.06 | 7.17 |  | CO[C@H]1/C=C/C[C@H](C)C[S@@](=O)(NC(=O)c2cn(C)nc2N)=NC(=O)c2ccc3c(c2)N(C[C@@H]2CC[C@H]21)C[C@@]1(CCCc2cc(Cl)ccc21)CO3 [Example 173]
29 | 9.74 | 7.12 |  | CO[C@H]1/C=C/C[C@H](C)C[S@@](=O)(NC(=O)c2cc3n(c2)CCC3)=NC(=O)c2ccc3c(c2)N(C[C@@H]2CC[C@H]21)C[C@@]1(CCCc2cc(Cl)ccc21)CO3 [Example 136]
30 | 10.28 | 7.13 |  | COCCOC1CCN(C(=O)N[S@@]2(=O)=NC(=O)c3ccc4c(c3)N(C[C@@H]3CC[C@H]3[C@@H](OC)/C=C/C[C@H](C)C2)C[C@@]2(CCCc3cc(Cl)ccc32)CO4)CC1 [Example 234]
31 | 10.15 | 7.27 |  | COCc1oc(C(=O)N[S@@]2(=O)=NC(=O)c3ccc4c(c3)N(C[C@@H]3CC[C@H]3[C@@H](OC)/C=C/C[C@H](C)C2)C[C@@]2(CCCc3cc(Cl)ccc32)CO4)cc1C [Example 339]
32 | 8.34 | 5.47 |  | COC1CCN(c2nn(C)cc2C(=O)N[S@@]2(=O)=NC(=O)c3ccc4c(c3)N(C[C@@H]3CC[C@H]3[C@@H](OC)/C=C/C[C@H](C)C2)C[C@@]2(CCCc3cc(Cl)ccc32)CO4)CC1 [Example 380]
33 | 10.38 | 7.07 |  | CO[C@H]1/C=C/C[C@H](C)C[S@@](=O)(NC(=O)N2CCN(C(C)=O)CC2)=NC(=O)c2ccc3c(c2)N(C[C@@H]2CC[C@H]21)C[C@@]1(CCCc2cc(Cl)ccc21)CO3 [Example 247]
34 | 9.65 | 7.13 |  | CO[C@H]1/C=C/C[C@H](C)C[S@@](=O)(NC(=O)c2cc3n(c2)C[C@@H](C)OC3)=NC(=O)c2ccc3c(c2)N(C[C@@H]2CC[C@H]21)C[C@@]1(CCCc2cc(Cl)ccc21)CO3 [Example 168]
35 | 9.95 | 6.84 |  | CO[C@H]1/C=C/C[C@H](C)C[S@@](=O)(NC(=O)c2ccn(C3CC3)c2)=NC(=O)c2ccc3c(c2)N(C[C@@H]2CC[C@H]21)C[C@@]1(CCCc2cc(Cl)ccc21)CO3 [Example 156]
36 | 10.51 | 7.51 |  | COCC1CN(C(=O)N[S@@]2(=O)=NC(=O)c3ccc4c(c3)N(C[C@@H]3CC[C@H]3[C@@H](OC)/C=C/C[C@H](C)C2)C[C@@]2(CCCc3cc(Cl)ccc32)CO4)C1 [Example 346]
